16 molecules from ChEMBL document CHEMBL1201862, “PubChem BioAssay data set” (2004) can be followed below.

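Where inhibition never reached the appropriate level, the endpoint shown equals the highest concentration tested. Otherwise, values were interpolated linearly from a five-concentration, 48-hour dose response in 96-well plates. GI50 is the concentration that inhibits growth by half.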 The source made the active and inactive calls. Cut-off read from the data, not from the text of the source: active = GI50 up to about 1.1 µM and inactive = higher. Bounds are passed on as bounds.

Some test systems named below: KM-20L2; SNB-78; LXFL 529; M19-MEL; HOP-18; RXF 631; DLD-1; XF498; Hs-578T.
Holding throughout (experiment): NCI anticancer screen, dose series, 48 h

For `CC(=O)Nc1ccc(/C=C/C(=O)c2sc(-n3nc(-c4ccccc4)cc3-c3ccccc3)nc2C)cc1`, the GI50 in the test with KM-20L2, in the test with SNB-78, in the test on LXFL 529, in the test with M19-MEL, in the test with HOP-18 and with RXF 631 was > 10 µM (inactive) in each case. Further, the GI50 in the test with DLD-1 is > 10 µM (inactive).
For the molecule `Cn1nc(-c2ccccc2)c2c(/C=C/c3ccccc3)onc2c1=O`, the GI50 in the test with KM-20L2 was > 100 µM (inactive); with SNB-78, 38.7 µM (inactive); in the test on LXFL 529 it was > 100 µM (inactive); with M19-MEL, > 100 µM (inactive); in the test on HOP-18 it was 25.5 µM (inactive); with XF498 it was 26.8 µM (inactive). Moreover, the GI50 is 73.3 µM (inactive) in the test on RXF 631 and 78.9 µM (inactive) with DLD-1.
Consider `OCC1CC2C=CCC(C2)C1` (stereo not given), for which the GI50 with KM-20L2, in the test with SNB-78, in the test on LXFL 529, in the test with M19-MEL, in the test on HOP-18 and in the test on XF498 was > 100 µM (inactive) each time. Moreover, the GI50 with DLD-1 is > 100 µM (inactive).
`CCOC(=O)C1(Br)C(c2ccccc2)NC(=O)N(C2OC(COC(=O)c3ccccc3)C(OC(=O)c3ccccc3)C2OC(=O)c2ccccc2)C1(C)Br` (stereo not given): the GI50 in the test on KM-20L2 was 37.9 µM (inactive); in the test with LXFL 529, 21.6 µM (inactive); with M19-MEL, 28.4 µM (inactive); with HOP-18 it was > 100 µM (inactive); in the test on RXF 631 it was 15.3 µM (inactive); in the test on DLD-1, 36.4 µM (inactive).
With `COc1nc(NC2OCC(O)C(O)C2O)c(NC2OCC(O)C(O)C2O)c(=O)n1C` (stereo not given), the GI50 in the test with KM-20L2, in the test on SNB-78, with LXFL 529, with M19-MEL, in the test on HOP-18 and with XF498 was > 100 µM (inactive) each time. Moreover, the GI50 in the test with DLD-1 is > 100 µM (inactive).
`CC(=O)C1C(=O)C(=O)N(c2ccccc2N2C(=O)C(=O)C(C(C)=O)C2=O)C1=O` (stereo not given): the GI50 with KM-20L2, in the test with SNB-78, in the test on LXFL 529, with M19-MEL, in the test with HOP-18 and in the test with RXF 631 was > 100 µM (inactive) in each case. In the test on DLD-1, the GI50 is > 100 µM (inactive).
For the molecule `NC1CC(n2ccc(=O)[nH]c2=O)OC1C(O)CO` (stereo not given), the GI50 in the test with KM-20L2, in the test with LXFL 529, with M19-MEL, in the test on HOP-18, in the test with XF498 and with RXF 631 was > 100 µM (inactive) throughout. Besides, the GI50 in the test with DLD-1 was > 100 µM (inactive).
For `Cc1cccc(C)c1NC(=O)C(=O)CC(=O)CO`, the GI50 with KM-20L2, with SNB-78, in the test with LXFL 529, with M19-MEL, in the test on HOP-18 and in the test with RXF 631 was > 100 µM (inactive) throughout. The GI50 in the test with DLD-1 is > 100 µM (inactive).
With `O=C(O)CN(CC(=O)O)Cc1cc(C#Cc2ccc(C#Cc3ccccc3)cc2)cc(CN(CC(=O)O)CC(=O)O)n1`, the GI50 in the test with KM-20L2 is 17 µM (inactive); in the test on SNB-78, 44.3 µM (inactive); with Hs-578T it was 46.8 µM (inactive); in the test with LXFL 529, 27.2 µM (inactive); with M19-MEL, 17.5 µM (inactive); with HOP-18, 33.4 µM (inactive). In addition, the GI50 was 20.5 µM (inactive) in the test with XF498 and 8.53 µM (inactive) with DLD-1.
As for `COC(=O)C(=O)C1CCCCC(C2=NC3NN=C(N)N3C2=O)C1=O` (stereo not given), the GI50 in the test with KM-20L2, in the test with LXFL 529, in the test with M19-MEL, in the test with HOP-18, in the test on XF498 and in the test with RXF 631 was > 100 µM (inactive) in each case. In addition, the GI50 with DLD-1 was > 100 µM (inactive).
For `COc1cc(C)c(C)c(OC(=O)c2c(C)c(C)c(OC)c(C)c2OC)c1C`, the GI50 in the test with KM-20L2 is 4.17 µM (inactive); with SNB-78 it was 21.1 µM (inactive); in the test with LXFL 529, 8.87 µM (inactive); in the test with M19-MEL, 7.6 µM (inactive); with HOP-18 it was 10.4 µM (inactive); with XF498, 12.2 µM (inactive). The results for the GI50 in the test on RXF 631 and in the test with DLD-1 were 10.3 µM (inactive) and 7.31 µM (inactive), respectively.
Regarding `Cc1c(Cl)ccc2c1NC(=O)C2(O)CC(=O)c1ccc(Cl)cc1` (stereo not given), the GI50 with KM-20L2 is > 100 µM (inactive); with SNB-78, > 96.6 µM (inactive); with LXFL 529 it was > 38.9 µM (inactive); in the test on M19-MEL it was 6.62 µM (inactive); in the test on HOP-18, > 70.8 µM (inactive); with RXF 631, 71.1 µM (inactive). Besides, the GI50 in the test with DLD-1 is 42.9 µM (inactive).
`CCNC(=O)COc1ccc(Br)cc1Br`: the GI50 was > 100 µM (inactive) in the test on KM-20L2; > 100 µM (inactive) in the test with SNB-78; > 100 µM (inactive) in the test on LXFL 529; > 100 µM (inactive) in the test on M19-MEL; > 100 µM (inactive) with HOP-18; 69.7 µM (inactive) with RXF 631. Also, in the test with DLD-1, the GI50 is > 100 µM (inactive).
In the case of `Cc1cc2c(cc1CO)N1Cc3cc(C)c(CO)cc3N(C2)C1`, the GI50 in the test on KM-20L2, with SNB-78, with LXFL 529, in the test with M19-MEL, with HOP-18 and in the test with XF498 was > 100 µM (inactive) throughout. Moreover, in the test with DLD-1, the GI50 is > 100 µM (inactive).
`C[C@]12CCC[C@H](Cl)C1(O)C[C@H](C(=O)O)CC2` (stereo not given in full): the GI50 with KM-20L2, in the test with SNB-78, in the test on LXFL 529, with M19-MEL, in the test with HOP-18 and in the test on XF498 was > 100 µM (inactive) throughout. In the test with DLD-1, the GI50 is > 100 µM (inactive).
Take `COc1cc(/C=C\c2ccc(SC)cc2)cc(OC)c1OC`: the GI50 with KM-20L2 was 0.0182 µM (active); in the test with SNB-78, 0.0452 µM (active); in the test with Hs-578T, 0.0132 µM (active); in the test with LXFL 529 it was < 0.0221 µM (active); with M19-MEL it was 0.0278 µM (active); in the test on HOP-18 it was 0.0453 µM (active). The GI50 in the test on XF498 was 0.0908 µM (active); in the test on DLD-1 it was 0.0409 µM (active).
